Laboratory results reported in the supplement of paper PMC10307832.

What was measured:
Experiment in all cases: relative viability (nuclei count vs DMSO), 5 days (fraction); higher = more cells survive
FH535 + Palbociclib = compound: CC1=C(C=CC(=C1)[N+](=O)[O-])NS(=O)(=O)C2=C(C=CC(=C2)Cl)Cl [FH535] + CC(=O)c1c(C)c2cnc(Nc3ccc(N4CCNCC4)cn3)nc2n(C2CCCC2)c1=O [Palbociclib] (partner 0.5 µM)
In short: (§1)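 Lung cancer cell lines were seeded in 1536-well plates and dosed by pin tool the next day, with either a single drug or a fixed anchor-drug dose combined with five library-drug doses (not always all listed) spaced in √10 steps. Five days later, one step fixed the cells and stained their nuclei (final 0.05% Triton X-100, 1% formaldehyde, 1 ug/ml Hoechst), and nuclei were counted on 4× images. Relative viability is the nuclei count in treated wells divided by the count in vehicle wells, and each value is the median of duplicate plates.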

FH535 + Bortezomib = compound: CC1=C(C=CC(=C1)[N+](=O)[O-])NS(=O)(=O)C2=C(C=CC(=C2)Cl)Cl [FH535] + CC(C)C[C@H](NC(=O)[C@H](Cc1ccccc1)NC(=O)c1cnccn1)B(O)O [Bortezomib] (partner 0.002 µM)
In short: as §1

FH535 + Foretinib = compound: CC1=C(C=CC(=C1)[N+](=O)[O-])NS(=O)(=O)C2=C(C=CC(=C2)Cl)Cl [FH535] + COc1cc2c(Oc3ccc(NC(=O)C4(C(=O)Nc5ccc(F)cc5)CC4)cc3F)ccnc2cc1OCCCN1CCOCC1 [Foretinib] (partner 0.25 µM)
In short: as §1

FH535 + Pemetrexed = compound: CC1=C(C=CC(=C1)[N+](=O)[O-])NS(=O)(=O)C2=C(C=CC(=C2)Cl)Cl [FH535] + Nc1nc2[nH]cc(CCc3ccc(C(=O)N[C@@H](CCC(=O)O)C(=O)O)cc3)c2c(=O)[nH]1 [Pemetrexed] (partner 0.2 µM)
In short: as §1

FH535 + Decitabine = compound: CC1=C(C=CC(=C1)[N+](=O)[O-])NS(=O)(=O)C2=C(C=CC(=C2)Cl)Cl [FH535] + Nc1ncn([C@H]2C[C@H](O)[C@@H](CO)O2)c(=O)n1 [Decitabine] (partner 2 µM)
In short: as §1

Cell Line	relative viability (FH535 + Palbociclib; first compound 0.04 µM)	relative viability (FH535 + Palbociclib; first compound 0.1265 µM)	relative viability (FH535 + Palbociclib; first compound 0.4 µM)	relative viability (FH535 + Palbociclib; first compound 1.265 µM)	relative viability (FH535 + Bortezomib; first compound 0.04 µM)	relative viability (FH535 + Bortezomib; first compound 0.1265 µM)	relative viability (FH535 + Bortezomib; first compound 0.4 µM)	relative viability (FH535 + Bortezomib; first compound 1.265 µM)	relative viability (FH535 + Foretinib; first compound 0.04 µM)	relative viability (FH535 + Foretinib; first compound 0.1265 µM)	relative viability (FH535 + Foretinib; first compound 0.4 µM)	relative viability (FH535 + Foretinib; first compound 1.265 µM)	relative viability (FH535 + Pemetrexed; first compound 0.04 µM)	relative viability (FH535 + Pemetrexed; first compound 0.1265 µM)	relative viability (FH535 + Pemetrexed; first compound 0.4 µM)	relative viability (FH535 + Pemetrexed; first compound 1.265 µM)	relative viability (FH535 + Decitabine; first compound 0.04 µM)	relative viability (FH535 + Decitabine; first compound 0.1265 µM)	relative viability (FH535 + Decitabine; first compound 0.4 µM)	relative viability (FH535 + Decitabine; first compound 1.265 µM)
201T	0.374	0.344	0.332	0.301	1.02	1.05	1.1	1.03	0.987	1.15	1.11	1.02	0.344	0.336	0.356	0.275	0.824	0.842	0.872	0.652
A549									0.947	0.981	0.853	0.722					0.251	0.228	0.161	0.222
A-427	0.532	0.575	0.546	0.474	0.967	0.982	0.829	0.908	1.06	0.965	1.04	0.977	0.979	0.973	0.953	0.785	0.545	0.593	0.549	0.576
ABC-1	0.715	0.641	0.458	0.583	0.331	0.26	0.33	0.34	1.04	0.849	0.969	0.907					1.07	0.997	0.994	1.01
BEN	0.477	0.455	0.489	0.431	0.755	0.615	0.647	0.475	0.595	0.932	0.723	0.328	0.708	0.755	0.638	0.613	0.676	0.703	0.573	0.498
CAL-12T	0.344	0.442	0.393	0.25	0.846	0.936	0.626	0.268	1.15	1.11	1.04	0.577	1.24	1.38	1.04	0.877				
COR-L23	0.3	0.327	0.263	0.256	0.845	1.04	0.816	0.587	0.936	0.818	0.781	0.517	0.188	0.192	0.2	0.205	0.302	0.424	0.444	0.314
COR-L 105	0.335	0.386	0.43	0.359	0.804	0.822	0.653	0.675	0.936	1.25	0.794	1.02	1.16	1.08	0.943	0.968	0.634	0.735	0.64	0.687
ChaGo-K-1	0.893	0.946	0.888	0.531	0.915	1.24	0.95	0.589	0.916	1.05	0.967	0.722	0.259	0.237	0.273	0.255	0.496	0.517	0.54	0.377
EKVX	0.422	0.396	0.333	0.292	1.04	0.762	1	0.704	0.792	0.629	0.744	0.587	0.366	0.47	0.413	0.379	0.373	0.413	0.331	0.27
EMC-BAC-2	0.546	0.507	0.526	0.512	0.961	1.13	1.06	1.03	0.978	0.97	0.997	0.809	0.408	0.422	0.419	0.423	0.885	1	0.985	0.892
EPLC-272H	0.363	0.336	0.337	0.299	0.788	0.967	0.925	0.848	0.586	0.852	0.72	0.562	0.301	0.366	0.353	0.308	0.328	0.4	0.412	0.377
H3255	0.302	0.307	0.346	0.307	0.614	0.827	0.708	0.409	0.817	0.803	0.794	0.496	0.58	0.564	0.545	0.577	0.541	0.625	0.63	0.456
HARA	0.233	0.278	0.277	0.241	1.03	0.987	1.11	0.73	0.814	0.969	0.88	0.477	0.258	0.254	0.234	0.286	0.578	0.475	0.552	0.414
HCC-15	0.651	0.781	0.639	0.523	0.975	0.874	0.896	0.713	0.988	1.06	0.965	0.639	0.256	0.216	0.229	0.212	0.58	0.58	0.604	0.451
HCC-44	1.02	0.889	0.914	0.79	0.952	0.811	0.856	0.652					0.647	0.687	0.604	0.628	0.896	0.938	0.845	0.835
